T1: TcCAT1.1 (Trypanosoma cruzi, UniProt A0A0H4FPU8)
T1 construct: gene C3747_66g20; full-length ORF, untagged, pYES2, expressed in S. cerevisiae HSC100-3C (can1 gap1 lyp1); 10 predicted transmembrane helices
T1 sequence (A0A0H4FPU8 1-448): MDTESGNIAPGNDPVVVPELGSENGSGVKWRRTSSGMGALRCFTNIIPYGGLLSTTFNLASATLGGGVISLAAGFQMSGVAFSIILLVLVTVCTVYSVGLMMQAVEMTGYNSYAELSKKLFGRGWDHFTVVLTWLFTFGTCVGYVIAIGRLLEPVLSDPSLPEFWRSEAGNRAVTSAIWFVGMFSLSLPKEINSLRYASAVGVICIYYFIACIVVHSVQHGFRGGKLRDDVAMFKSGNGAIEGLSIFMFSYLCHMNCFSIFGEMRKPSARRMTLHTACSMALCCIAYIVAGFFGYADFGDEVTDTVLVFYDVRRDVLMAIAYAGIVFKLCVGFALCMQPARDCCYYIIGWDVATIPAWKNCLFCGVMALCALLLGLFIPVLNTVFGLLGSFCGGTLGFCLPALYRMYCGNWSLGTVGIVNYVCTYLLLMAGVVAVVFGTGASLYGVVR

B1: TcCAT1.1 (Trypanosoma cruzi) (protein)
chain: MDTESGNIAPGNDPVVVPELGSENGSGVKWRRTSSGMGALRCFTNIIPYGGLLSTTFNLASATLGGGVISLAAGFQMSGVAFSIILLVLVTVCTVYSVGLMMQAVEMTGYNSYAELSKKLFGRGWDHFTVVLTWLFTFGTCVGYVIAIGRLLEPVLSDPSLPEFWRSEAGNRAVTSAIWFVGMFSLSLPKEINSLRYASAVGVICIYYFIACIVVHSVQHGFRGGKLRDDVAMFKSGNGAIEGLSIFMFSYLCHMNCFSIFGEMRKPSARRMTLHTACSMALCCIAYIVAGFFGYADFGDEVTDTVLVFYDVRRDVLMAIAYAGIVFKLCVGFALCMQPARDCCYYIIGWDVATIPAWKNCLFCGVMALCALLLGLFIPVLNTVFGLLGSFCGGTLGFCLPALYRMYCGNWSLGTVGIVNYVCTYLLLMAGVVAVVFGTGASLYGVVR
notes: full-length ORF, untagged, pYES2, expressed in S. cerevisiae HSC100-3C (can1 gap1 lyp1); 10 predicted transmembrane helices

In the first series the target is T1, TcCAT1.1. The series is described as follows: competition of [3H]-arginine uptake in transformed S. cerevisiae. It counts as cell-based. The conditions noted are these: 1000 µM; 10 µM [3H]-arginine, 1 mM competitor, 30 min, room temperature. The source says: competition of [3H]-arginine uptake in transformed S. cerevisiae on TcCAT1.1
On to `C[C@H](N)C(=O)O` [alanine], for which the “[^3H]-Arginine uptake(%)” value is 67.9 ± 2.6%.

`NC(=O)C[C@H](N)C(=O)O` [asparagine]: the “[^3H]-Arginine uptake(%)” value was 78.0 ± 6.1%.

Consider `NC(=O)CC[C@H](N)C(=O)O` [glutamine], for which the “[^3H]-Arginine uptake(%)” value was 74.2 ± 25.6%.

`N[C@@H](Cc1cnc[nH]1)C(=O)O` [histidine]: the “[^3H]-Arginine uptake(%)” value was found to be 67.3 ± 8.8%.

With `N=C(N)NCCCC[C@H](N)C(=O)O` [homoarginine], the “[^3H]-Arginine uptake(%)” value was 65.5 ± 12.1%.

On to `CC(C)C[C@H](N)C(=O)O` [leucine], for which the “[^3H]-Arginine uptake(%)” value stood at 67.7 ± 16.2%.

As for `NCCCC[C@H](N)C(=O)O` [lysine], the “[^3H]-Arginine uptake(%)” value was determined as 78.0 ± 26.7%.

For `O=C(O)[C@@H]1CCCN1` [proline], the “[^3H]-Arginine uptake(%)” value is 72.3 ± 12.1%.

In the case of `NCCCNCCCCNCCCN` [spermine], the “[^3H]-Arginine uptake(%)” value was determined as 65.0 ± 6.6%.

Still in this series, the particulars now being: 1000 µM; 10 µM [3H]-arginine, 1 mM competitor, 30 min, room temperature; possible substrate.
Consider `N=C(N)NOCC[C@H](N)C(=O)O` [canavanine], for which the “[^3H]-Arginine uptake(%)” value was 28.9 ± 6.3%.

Substrate in a further series: N=C(N)NCCC[C@H](N)C(=O)O
The series is described as follows: radiolabelled uptake in transformed S. cerevisiae, Michaelis-Menten fit. It counts as cell-based, Trypanosoma cruzi. The conditions noted are these: labelled compound; glucose-repressed background subtracted; three trials.
Description: radiolabelled uptake in transformed S. cerevisiae, Michaelis-Menten fit on TcCAT1.1
As usually defined, the Km is the substrate concentration at which the rate is half of its maximum. B1: the Km stood at 85 ± 40 µM.
